The text below walks through data of ChEMBL document CHEMBL3046610, “Synthesis and Biological Activities of Fluorinated Plant Growth Regulators, 4, 4, 4-Trifluoro-3-(3-indolyl)butyric Acids and 4, 4, 4-Trifluoro-3-(2-indolyl)butyric Acid Bearing a Methyl Group on the Indole Nucleus” (1997).

The subject of test [1] is Oryza sativa. In words: Growth promoting activity in Oryza sativa (rice) assessed as increase in shoot length at 1 x 10^-3 M relative to control. It is filed as functional.
Test [2] has as its system Oryza sativa. Description: Growth promoting activity in Oryza sativa (rice) assessed as increase in root length at 1 x 10^-4 M relative to control. It is filed as functional.
Test [3] has as its system Oryza sativa. In words: Growth promoting activity in Oryza sativa (rice) assessed as increase in root length at 1 x 10^-3 M relative to control. It is filed as functional, organism-based.
In test [4] the test system is Lactuca sativa. Description: Growth promoting activity in Lactuca sativa (lettuce) assessed as increase in root length at 1 x 10^-5 M relative to control. Type of test: functional, organism-based.
In test [5] the test system is Lactuca sativa. In words: Growth promoting activity in Lactuca sativa (lettuce) assessed as increase in root length at 1 x 10^-4 M relative to control. Type of test: functional, organism-based.
Test [6] has as its system Brassica rapa. Description: Growth promoting activity in Brassica rapa (Chinese cabbage) assessed as increase in root length at 1 x 10^-3 M relative to control. It is filed as functional, organism-based.
Test [7] deals with Oryza sativa. Description: Growth promoting activity in Oryza sativa (rice) assessed as increase in shoot length at 1 x 10^-6 M relative to control. Type of test: functional.
Test [8] concerns Oryza sativa. In words: Growth promoting activity in Oryza sativa (rice) assessed as increase in root length at 1 x 10^-6 M relative to control. Type of test: functional.
Test [9] deals with Oryza sativa. Description: Growth promoting activity in Oryza sativa (rice) assessed as increase in shoot length at 1 x 10^-5 M relative to control. It is filed as functional.
In test [10] the test system is Oryza sativa. Description: Growth promoting activity in Oryza sativa (rice) assessed as increase in root length at 1 x 10^-5 M relative to control. Type of test: functional.
Test [11] deals with Oryza sativa. In words: Growth promoting activity in Oryza sativa (rice) assessed as increase in shoot length at 1 x 10^-4 M relative to control. Type of test: functional.
The subject of test [12] is Brassica rapa. In words: Growth promoting activity in Brassica rapa (Chinese cabbage) assessed as increase in root length at 1 x 10^-4 M relative to control. It is filed as functional.
Test [13] concerns Brassica rapa. In words: Growth promoting activity in Brassica rapa (Chinese cabbage) assessed as increase in root length. It is filed as functional, organism-based.

Structures are written as SMILES. Activity calls are given as the source filed them. The calls are words filed in the database; no cut-off is given here.

In the case of `Cc1ccc2[nH]cc(C(CC(=O)O)C(F)(F)F)c2c1` (racemic), the Activity in [1] was found to be 31.9%; in [2], 331.1%; in test [7], 100.5%; in test [8], 168.5%; in [9], 105.5%; in [10], 382.4%. The Activity in test [11] was found to be 90%. Moreover, the outcome in [3] and in test [6] was inactive. The outcome in test [4] and in [5] was Active.
Turning to `Cc1cccc2c(C(CC(=O)O)C(F)(F)F)c[nH]c12` (racemic), the Activity is 36.9% in [1]; 224.4% in test [2]; 96% in test [7]; 126% in test [8]; 112.8% in test [9]; 277.1% in test [10]. The Activity in test [11] is given as 83.3%. In addition, the outcome in test [3] and in [6] was inactive. Moreover, the outcome in test [4], in test [5] and in [13] was Active. Besides, in test [12], the “fold change (FC)” value is 2.5.
For `Cc1[nH]c2ccccc2c1C(CC(=O)O)C(F)(F)F` (racemic), the Activity in [1] amounted to 36.6%; in [2] it was 168%; in test [7] it was 98.8%; in test [8], 111.8%; in [9], 103.2%; in [10] it was 242%. Besides, the Activity in test [11] is given as 84%. The outcome in test [3], in test [4], in test [5] and in test [6] was inactive.
Consider `Cc1c(C(CC(=O)O)C(F)(F)F)[nH]c2ccccc12` (racemic), for which the Activity in [1] is 38.2%; in test [2], 433.3%; in [7], 98.4%; in test [8] it was 134.6%; in [9], 106.2%; in [10], 266%. For the same molecule, the Activity in test [11] amounted to 99%. The result in test [3], in [5] and in [6] was inactive. In addition, the outcome in test [4] and in test [13] was Active. Moreover, the “fold change (FC)” value in [12] is on record as 2.5.
Turning to `Cn1cc(C(CC(=O)O)C(F)(F)F)c2ccccc21` (racemic), the Activity amounted to 46% in test [1]; 153.4% in [2]; 94.6% in test [7]; 136.2% in [8]; 105.3% in test [9]; 211.1% in [10]. Besides, the Activity in test [11] is 86.2%. For the same molecule, the outcome in test [3], in [4], in test [6] and in [13] was inactive. Besides, in test [5], the result was Active.
For `O=C(O)CC(c1c[nH]c2ccccc12)C(F)(F)F` (racemic), the Activity in test [1] came out at 35.6%; in [2] it was 199.5%; in test [7] it was 99.2%; in [8], 128.9%; in test [9], 99%; in [10], 290.1%. Besides, in test [11], the Activity turned out to be 76.7%. Besides, the result in test [3] was inactive.
For `Cc1cccc2[nH]cc(C(CC(=O)O)C(F)(F)F)c12` (racemic), the Activity stood at 33.7% in test [1]; 274.6% in test [2]; 103.6% in test [7]; 172.5% in test [8]; 102.7% in [9]; 357.5% in test [10]. In addition, the Activity in test [11] is reported as 86.4%. For the same molecule, the outcome in [3] and in [6] was inactive. Besides, the outcome in test [4], in test [5] and in test [13] was Active. The “fold change (FC)” value in [12] is given as 2.5.
With `Cc1ccc2c(C(CC(=O)O)C(F)(F)F)c[nH]c2c1` (racemic), the Activity in test [1] is 31.5%; in [2], 311.4%; in [7], 103.3%; in test [8], 172%; in test [9], 106.2%; in test [10], 377.5%. In test [11], the Activity amounted to 95.9%. For the same molecule, the result in [3] and in test [6] was inactive. The result in test [4], in test [5] and in [13] was Active. Also, the “fold change (FC)” value in [12] is listed as 2.5.
